Test: recombinant barcode read abundance after kanamycin selection (control-corrected) (log10(CPM+1)); higher = more efficient recombination; sequences stand for … in AGTGCAGAGAAAATCGGCCAGTTTTCTCTGCCTGCAGTCCGCATGCCGT…AGATTTATGCAGCGGACTGCCTTTCTCCCAAAGTGATAAACCGGACAGTATCATGGACCGGTTTTCCCGGTAATCCGTATTTGCAAGGTTGGTTTCACT; site = the 11-nt target
Method: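 Pooled E. coli target-specificity screen for the IS621 bridge recombinase. Each library plasmid pairs an 11-nt target (CT core) with a bridge RNA whose target-binding loop (9-nt LTG + 4-nt RTG) is reprogrammed; the rest of the 177-nt WT IS621 bridge RNA scaffold is fixed. The plasmid is co-electroporated with a WT donor plasmid; recombinase is induced with 0.1 mM IPTG and recombinants are selected on kanamycin. Recombinant barcodes are sequenced, converted to CPM, averaged over two biological replicates and corrected by the unselected control CPM. Molecule = full bridge RNA written as DNA: LTG = specificity nt 1-9, RTG = reverse complement of specificity nt 8-11, in the WT scaffold.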
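Also: IS621 recombinase and bridge RNA in Escherichia coli cells.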

Row | Sequence | recombinant barcode read abundance (log10)
1 | AGAGTGACTTGGGTTCTAACCTGTTGCCT (site AGAGTGACTAG) | 1.69
2 | AGATTCACTTGGGTTCTAACCTGTTGCCT (site AGATTCACTAG) | 0.994
3 | AGATTCACTTGGGTTCTAACCTGTTGCCT (site AGATTGACTTG) | 0.0824
4 | AGATTCCCTTGGGTTCTAACCTGTTGCCG (site AGATTCCCTCG) | 1.67
5 | AGATTCCCTTGGGTTCTAACCTGTTGCCG (site AGATTCGCTCG) | 0.0429
6 | AGATTTCCTTGGGTTCTAACCTGTTGCAT (site AGATTTCCTAT) | 0.173
7 | AGATTTCCTTGGGTTCTAACCTGTTGCAT (site CATCCGACTGA) | 0.0339
8 | AGCAACACTTGGGTTCTAACCTGTTGCAG (site AGCAACACTCT) | 0.467
9 | AGCAACACTTGGGTTCTAACCTGTTGCAG (site TCTCGTCCTTA) | 0.0984
10 | AGCAATTCTTGGGTTCTAACCTGTTGCCT (site AGAAATTCTAG) | 0.144
11 | AGCAATTCTTGGGTTCTAACCTGTTGCCT (site AGCAATTCTAG) | 0.165
12 | AGCAATTCTTGGGTTCTAACCTGTTGCCT (site AGGAATTCTAG) | 0.132
13 | AGCAATTCTTGGGTTCTAACCTGTTGCCT (site AGTAATTCTAG) | 0.277
14 | AGCAGCTCTTGGGTTCTAACCTGTTGCCT (site AGCAGCTCTAG) | 1.7
15 | AGCAGCTCTTGGGTTCTAACCTGTTGCCT (site AGGAGCGCTAG) | 0.0136
16 | AGCAGGACTTGGGTTCTAACCTGTTGCCG (site AGCACGACTCA) | 0.0667
17 | AGCAGGACTTGGGTTCTAACCTGTTGCCG (site AGCAGGACTCG) | 1.17
18 | AGCAGGGCTTGGGTTCTAACCTGTTGCAG (site AGCAGGGCTCT) | 2.14
19 | AGCAGGGCTTGGGTTCTAACCTGTTGCAG (site AGTAGGACTCT) | 0.184
20 | AGCAGGTCTTGGGTTCTAACCTGTTGCCT (site AACAGGTCTAG) | 0.109
21 | AGCAGGTCTTGGGTTCTAACCTGTTGCCT (site ACCAGGTCTAG) | 0.234

Row | Sequence | recombinant barcode read abundance (log10)
22 | AGCAGGTCTTGGGTTCTAACCTGTTGCCT (site AGCAGGTCTAG) | 1.09
23 | AGCAGGTCTTGGGTTCTAACCTGTTGCCT (site ATCAGGTCTAG) | 0.0118
24 | AGCAGTCCTTGGGTTCTAACCTGTTGCGT (site AGCAGTCCTAC) | 1.47
25 | AGCAGTCCTTGGGTTCTAACCTGTTGCGT (site AGGAGTCCTAC) | 0.188
26 | AGCAGTCCTTGGGTTCTAACCTGTTGCTG (site AGCAGTCCTCA) | 0.802
27 | AGCAGTCCTTGGGTTCTAACCTGTTGCTG (site TCCAGTCCTCA) | 0.0256
28 | AGCCACACTTGGGTTCTAACCTGTTGCCT (site AGCCACACTAG) | 0.933
29 | AGCCACACTTGGGTTCTAACCTGTTGCCT (site AGCCACCCTAG) | 0
30 | AGCCACACTTGGGTTCTAACCTGTTGCCT (site AGCCACGCTAG) | 0.374
31 | AGCCACACTTGGGTTCTAACCTGTTGCCT (site AGCCACTCTAG) | 0.456
32 | AGCCACACTTGGGTTCTAACCTGTTGCGT (site AGCCACACTAC) | 0.948
33 | AGCCACACTTGGGTTCTAACCTGTTGCGT (site TGCCAGACTAC) | 0.183
34 | AGCCCTCCTTGGGTTCTAACCTGTTGCTT (site AGCCCTCCTAA) | 0.518
35 | AGCCCTCCTTGGGTTCTAACCTGTTGCTT (site AGCCCTCCTCA) | 0.667
36 | AGCCCTCCTTGGGTTCTAACCTGTTGCTT (site AGCCCTCCTGA) | 0.038
37 | AGCCCTCCTTGGGTTCTAACCTGTTGCTT (site AGCCCTCCTTA) | 0.0347
38 | AGCCTCCCTTGGGTTCTAACCTGTTGCCT (site AGACTCCCTAG) | 0.089
39 | AGCCTCCCTTGGGTTCTAACCTGTTGCCT (site AGCCTCCCTAG) | 0.474
40 | AGCCTCCCTTGGGTTCTAACCTGTTGCCT (site AGGCTCCCTAG) | 0.0381
41 | AGCCTCCCTTGGGTTCTAACCTGTTGCCT (site AGTCTCCCTAG) | 0.578
42 | AGCCTGACTTGGGTTCTAACCTGTTGCCT (site AGCCTGACTAG) | 0.741

Row | Sequence | recombinant barcode read abundance (log10)
43 | AGCCTGACTTGGGTTCTAACCTGTTGCCT (site AGCCTGCCTAG) | 0.313
44 | AGCCTGACTTGGGTTCTAACCTGTTGCCT (site AGCCTGGCTAG) | 0.332
45 | AGCCTGACTTGGGTTCTAACCTGTTGCCT (site AGCCTGTCTAG) | 0
46 | AGCCTGGCTTGGGTTCTAACCTGTTGCCT (site AGCCTGACTAG) | 0.302
47 | AGCCTGGCTTGGGTTCTAACCTGTTGCCT (site AGCCTGCCTAG) | 0.235
48 | AGCCTGGCTTGGGTTCTAACCTGTTGCCT (site AGCCTGGCTAG) | 0.594
49 | AGCCTGGCTTGGGTTCTAACCTGTTGCCT (site AGCCTGTCTAG) | 0.0926
50 | AGCGCTTCTTGGGTTCTAACCTGTTGCCT (site AACGCTTCTAG) | 0.241
51 | AGCGCTTCTTGGGTTCTAACCTGTTGCCT (site ACCGCTTCTAG) | 0.423
52 | AGCGCTTCTTGGGTTCTAACCTGTTGCCT (site AGCGCTTCTAG) | 0.454
53 | AGCGCTTCTTGGGTTCTAACCTGTTGCCT (site ATCGCTTCTAG) | 0.0212
54 | AGCGGACCTTGGGTTCTAACCTGTTGCCT (site AGCGGACCTAG) | 1.45
55 | AGCGGACCTTGGGTTCTAACCTGTTGCCT (site AGCGGCCCTAG) | 0.133
56 | AGCGGACCTTGGGTTCTAACCTGTTGCCT (site AGCGGGCCTAG) | 0.188
57 | AGCGGACCTTGGGTTCTAACCTGTTGCCT (site AGCGGTCCTAG) | 0.0865
58 | AGCTCACCTTGGGTTCTAACCTGTTGCCT (site AGCTCACCTAG) | 0.216
59 | AGCTCACCTTGGGTTCTAACCTGTTGCCT (site AGCTCATCTAG) | 0.147
60 | AGCTTACCTTGGGTTCTAACCTGTTGCCT (site AGCTTACCTAG) | 0.204
61 | AGCTTACCTTGGGTTCTAACCTGTTGCCT (site CGCTTACCTAG) | 0.212
62 | AGCTTACCTTGGGTTCTAACCTGTTGCCT (site GGCTTACCTAG) | 0.105
63 | AGCTTACCTTGGGTTCTAACCTGTTGCCT (site TGCTTACCTAG) | 0.0503

Row | Sequence | recombinant barcode read abundance (log10)
64 | AGCTTAGCTTGGGTTCTAACCTGTTGCCC (site AGCTTAGCTAG) | 0.306
65 | AGCTTAGCTTGGGTTCTAACCTGTTGCCC (site AGCTTAGCTCG) | 0.0502
66 | AGCTTAGCTTGGGTTCTAACCTGTTGCCC (site AGCTTAGCTGG) | 0.395
67 | AGCTTAGCTTGGGTTCTAACCTGTTGCCC (site AGCTTAGCTTG) | 0.0493
68 | AGCTTGCCTTGGGTTCTAACCTGTTGCAG (site AGCTTGCCTCT) | 0.717
69 | AGCTTGCCTTGGGTTCTAACCTGTTGCAG (site CATAGCGCTAG) | 0.277
70 | AGCTTTGCTTGGGTTCTAACCTGTTGCCT (site AGCATTGCTAG) | 0.015
71 | AGCTTTGCTTGGGTTCTAACCTGTTGCCT (site AGCCTTGCTAG) | 0.171
72 | AGCTTTGCTTGGGTTCTAACCTGTTGCCT (site AGCGTTGCTAG) | 0.669
73 | AGCTTTGCTTGGGTTCTAACCTGTTGCCT (site AGCTTTGCTAG) | 0.0693
74 | AGGAACCCTTGGGTTCTAACCTGTTGCTG (site AGGAACCCTAA) | 0.712
75 | AGGAACCCTTGGGTTCTAACCTGTTGCTG (site AGGAACCCTCA) | 1.78
76 | AGGAACCCTTGGGTTCTAACCTGTTGCTG (site AGGAACCCTGA) | 0.106
77 | AGGAACCCTTGGGTTCTAACCTGTTGCTG (site AGGAACCCTTA) | 0.08
78 | AGGACGACTTGGGTTCTAACCTGTTGCCT (site AGCGCGACTAG) | 0.0505
79 | AGGACGACTTGGGTTCTAACCTGTTGCCT (site AGGACGACTAG) | 0.376
80 | AGGAGAACTTGGGTTCTAACCTGTTGCCT (site AGCATAACTAG) | 0.447
81 | AGGAGAACTTGGGTTCTAACCTGTTGCCT (site AGGAGAACTAG) | 1.35
82 | AGGAGCCCTTGGGTTCTAACCTGTTGCTC (site AGGAGCCCTAA) | 0.124

Source: the supplement of paper PMC11208160
